In patent publication US7915402B2, “Antioxidant inflammation modulators: oleanolic acid derivatives with saturation in the C-ring” (Reata Pharmaceuticals, Inc., priority 2008, dated 2011) one finds Mortality and IC50 data, which are given here for 17 molecules.

Structures are written as SMILES.

The subject of one data set is mice. The data set is described as follows: 9-day toxicity study in mice. Format: in vivo. The note with it: sesame oil, p.o. daily for 9 days. How it is done:
In a second experiment, six additional compound differing only in the saturation or non-saturation of the C ring were tested for toxicity in mice by daily oral administration for 9 days, using sesame oil as the vehicle.

For data set [1], the system named is IFNγ-induced NO production in RAW264.7 macrophages. The data set is described as follows: Suppression of IFNγ-induced NO production (Griess reagent). Format: cell-based, mouse. The note with it: RAW264.7, 20 ng/ml IFNγ 24 h, 2 h pre-treatment. Here is the method:
(§1) FIGS. 1-8 and 32-34. Inhibition of NO Production. RAW264.7 macrophages were pre-treated with DMSO or drugs at various concentrations (nM) for 2 hours, then treated with 20 ng/ml IFNγ for 24 hours. NO concentration in media was determined using a Griess reagent system; cell viability was determined using WST-1 reagent.
(§2) Nitric Oxide production and cell viability. RAW264.7 macrophages were pre-treated with DMSO or drugs for 2 hours, then treated with recombinant mouse IFNγ (Sigma) for 24 hours. NO concentration in media was determined using the Griess reagent system (Promega). Cell viability was determined using WST-1 reagent (Roche).
Background: Nitrite, measured by Griess reagent, commonly stands in for NO production.

In a further data set the test system is RAW264.7 macrophages. The data set is described as follows: Cell viability, WST-1 reagent. Format: cell-based, mouse. Conditions: RAW264.7 (20 ng/ml IFNγ). How it is done:
as §1, §2
(In general: Tetrazolium dyes change colour on reduction, which living cells bring about.)

`CONC(=O)[C@]12CCC(C)(C)C[C@H]1[C@H]1C(=O)C=C3[C@@]4(C)C=C(C#N)C(=O)C(C)(C)[C@@H]4CC[C@@]3(C)[C@]1(C)CC2` [Compound 63166, reference compound]: the Mortality in the data set on mice (3 mg/kg), in the data set on mice (10 mg/kg) and in the data set on mice (30 mg/kg) was 0/5 each time.
By IC50 is commonly meant the point on the concentration scale where inhibition reaches its midpoint. With `COC(=O)[C@]12CCC(C)(C)C[C@H]1[C@H]1C(=O)C[C@@H]3[C@@]4(C)Cc5cnoc5C(C)(C)[C@@H]4CC[C@@]3(C)[C@]1(C)CC2` [Compound 63195], the IC50 (in data set [1]; with RAW264.7 macrophages) was more than 200 nM each time.
For `CC1(C)CC[C@]2(C(=O)NCC(F)(F)F)CC[C@]3(C)[C@H](C(=O)C[C@@H]4[C@@]5(C)Cc6cnoc6C(C)(C)[C@@H]5CC[C@]43C)[C@@H]2C1` [Compound 63223], the 50% inhibitory concentration (IC50) (in data set [1]; in the data set with RAW264.7 macrophages) was more than 200 nM throughout.
Turning to `CC1(C)CC[C@]2(C(=O)NCC(F)(F)F)CC[C@]3(C)[C@H](C(=O)C[C@@H]4[C@@]5(C)CC(C#N)C(=O)C(C)(C)[C@@H]5CC[C@]43C)[C@@H]2C1` (stereo partly drawn) [Compound 63227, (4aS,6aR,6bR,8aR,12aR,12bR,14aR,14bS)-11-cyano-2,2,6a,6b,9,9,12a-heptamethyl-10,14-dioxo-N-(2,2,2-trifluoroethyl)docosahydropicene-4a-carboxamide], the IC50 (in data set [1] (Mus musculus); in the data set with RAW264.7 macrophages (Mus musculus)) was more than 200 nM throughout.
`CC1(C)CC[C@]2(c3nn[nH]n3)CC[C@]3(C)[C@H](C(=O)C[C@@H]4[C@@]5(C)C=C(C#N)C(=O)C(C)(C)[C@@H]5CC[C@]43C)[C@@H]2C1` [Compound 63229, (4aR,6aR,6bR,8aS,12aS,12bR,14aR,14bR)-4,4,6a,6b,11,11,14b-heptamethyl-3,13-dioxo-8a-(2H-tetrazol-5-yl)-3,4,4a,5,6,6a,6b,7,8,8a,9,10,11,12,12a,12b,13,14,14a,14b-icosahydropicene-2-carbonitrile]: the IC50 (in data set [1] (Mus musculus); in the data set on RAW264.7 macrophages (Mus musculus)) was more than 200 nM each time.
For the molecule `Cn1nnc([C@]23CCC(C)(C)C[C@H]2[C@H]2C(=O)C[C@@H]4[C@@]5(C)C=C(C#N)C(=O)C(C)(C)[C@@H]5CC[C@@]4(C)[C@]2(C)CC3)n1` [Compound 63230, (4aR,6aR,6bR,8aS,12aS,12bR,14aR,14bR)-4,4,6a,6b,11,11,14b-heptamethyl-8a-(2-methyl-2H-tetrazol-5-yl)-3,13-dioxo-3,4,4a,5,6,6a,6b,7,8,8a,9,10,11,12,12a,12b,13,14,14a,14b-icosahydropicene-2-carbonitrile], the figures for the IC50 (in data set [1] (Mus musculus); with RAW264.7 macrophages (Mus musculus)) were approximately 50 nM and more than 200 nM, respectively.
The like results for `COC(=O)[C@]12CCC(C)(C)C[C@H]1[C@H]1C(=O)CC3[C@@]4(C)CC(C#N)=C(O)C(C)(C)[C@@H]4CC[C@@]3(C)[C@]1(C)CC2` (stereo partly drawn) [Compound 63250, (4aS,6aR,6bR,8aR,12aR,14aR,14bS)-methyl 11-cyano-10-hydroxy-2,2,6a,6b,9,9,12a-heptamethyl-14-oxo-1,2,3,4,4a,5,6,6a,6b,7,8,8a,9,12,12a,12b,13,14,14a,14b-icosahydropicene-4a-carboxylate] were, in that order, more than 200 nM and more than 200 nM.
`CC1(C)CC[C@]2(C(=O)NCC(F)(F)F)CC[C@]3(C)[C@H]([C@H](O)C[C@@H]4[C@@]5(C)C=C(C#N)C(=O)C(C)(C)[C@@H]5CC[C@]43C)[C@@H]2C1` [Compound 63268]: the IC50 (in data set [1]; in the data set on RAW264.7 macrophages) was more than 200 nM throughout.
Regarding `Cc1nnc([C@]23CCC(C)(C)C[C@H]2[C@H]2C(=O)C[C@@H]4[C@@]5(C)C=C(C#N)C(=O)C(C)(C)[C@@H]5CC[C@@]4(C)[C@]2(C)CC3)s1` [Compound 63274, (4aR,6aR,6bR,8aS,12aS,12bR,14aR,14bR)-4,4,6a,6b,11,11,14b-heptamethyl-8a-(5-methyl-1,3,4-thiadiazol-2-yl)-3,13-dioxo-3,4,4a,5,6,6a,6b,7,8,8a,9,10,11,12,12a,12b,13,14,14a,14b-icosahydropicene-2-carbonitrile], the IC50 in data set [1] (Mus musculus) was approximately 70 nM; in the data set on RAW264.7 macrophages (Mus musculus), more than 200 nM.
As to `COC(=O)[C@]12CCC(C)(C)C[C@H]1C1OC(O)C[C@@H]3[C@@]4(C)C=C(C#N)C(=O)C(C)(C)[C@@H]4CC[C@@]3(C)[C@]1(C)CC2` (stereo partly drawn) [Compound 63289, (4aR,6aR,6bS,8aS,12aR,15aR,15bR)-methyl 2-cyano-14-hydroxy-4,4,6a,6b,11,11,15b-heptamethyl-3-oxo-3,4,4a,5,6,6a,6b,7,8,8a,9,10,11,12,12a,12b,14,15,15a,15b-icosahydrodinaphtho[1,2-b:2′,1′-d]oxepine-8a-carboxylate], the IC50 (in data set [1] (Mus musculus); in the data set on RAW264.7 macrophages (Mus musculus)) was more than 200 nM in each case.
Take `COC(=O)[C@]12CCC(C)(C)C[C@H]1[C@H]1C(=NO)C[C@@H]3[C@@]4(C)C=C(C#N)C(=O)C(C)(C)[C@@H]4CC[C@@]3(C)[C@]1(C)CC2` [Compound 63295, (4aS,6aR,6bR,8aR,12aR,12bR,14aR,14bS)-methyl 11-cyano-14-(hydroxyimino)-2,2,6a,6b,9,9,12a-heptamethyl-10-oxo-1,2,3,4,4a,5,6,6a,6b,7,8,8a,9,10,12a,12b,13,14,14a,14b-icosahydropicene-4a-carboxylate]: the 50% inhibitory concentration (IC50) in data set [1] (Mus musculus) is approximately 20 nM; with RAW264.7 macrophages (Mus musculus) it was more than 200 nM.
On to `COC(=O)[C@]12CCC(C)(C)C[C@H]1[C@H]1NC(=O)C[C@@H]3[C@@]4(C)C=C(C#N)C(=O)C(C)(C)[C@@H]4CC[C@@]3(C)[C@]1(C)CC2` [Compound 63296, (4aR,6aR,6bS,8aS,12aR,12bR,15aR,15bR)-methyl 2-cyano-4,4,6a,6b,11,11,15b-heptamethyl-3,14-dioxo-4,4a,5,6,6a,6b,7,8,8a,9,10,11,12,12a,12b,13,14,15,15a,15b-icosahydro-3H-dinaphtho[1,2-b:2′,1′-d]azepine-8a-carboxylate], for which the concentration for half-maximal inhibition (IC50) in data set [1] (Mus musculus) was approximately 200 nM; in the data set on RAW264.7 macrophages (Mus musculus) it was more than 200 nM.
The like results for `CC(=O)[C@]12CCC(C)(C)C[C@H]1[C@H]1C(=O)C[C@@H]3[C@@]4(C)C=C(C#N)C(=O)C(C)(C)[C@@H]4CC[C@@]3(C)[C@]1(C)CC2` [Compound 63308, (4aR,6aR,6bR,8aS,12aS,12bR,14aR,14bR)-8a-acetyl-4,4,6a,6b,11,11,14b-heptamethyl-3,13-dioxo-3,4,4a,5,6,6a,6b,7,8,8a,9,10,11,12,12a,12b,13,14,14a,14b-icosahydropicene-2-carbonitrile] were, in that order, approximately 25 nM and more than 200 nM.
On to `CC1(C)CC[C@]2(C(=O)OCc3ccccc3)CC[C@]3(C)[C@H](C(=O)C[C@@H]4[C@@]5(C)C=C(C#N)C(=O)C(C)(C)[C@@H]5CC[C@]43C)[C@@H]2C1` [Compound 63323, (4aS,6aR,6bR,8aR,12aR,12bR,14aR,14bS)-benzyl 11-cyano-2,2,6a,6b,9,9,12a-heptamethyl-10,14-dioxo-1,2,3,4,4a,5,6,6a,6b,7,8,8a,9,10,12a,12b,13,14,14a,14b-icosahydropicene-4a-carboxylate], for which the IC50 in data set [1] (Mus musculus) was approximately 40 nM. Moreover, the Mortality in the data set with mice (3 mg/kg), in the data set with mice (10 mg/kg) and in the data set on mice (30 mg/kg) was 0/5 in each case.
As to `CN(C)C(=O)[C@]12CCC(C)(C)C[C@H]1[C@H]1C(=O)C=C3[C@@]4(C)C=C(C#N)C(=O)C(C)(C)[C@@H]4CC[C@@]3(C)[C@]1(C)CC2` [Compound 63324, reference compound], the Mortality in the data set on mice (3 mg/kg), in the data set with mice (10 mg/kg) and in the data set with mice (30 mg/kg) was 0/5 in each case.
As for `CONC(=O)[C@]12CCC(C)(C)C[C@H]1[C@H]1C(=O)C[C@@H]3[C@@]4(C)C=C(C#N)C(=O)C(C)(C)[C@@H]4CC[C@@]3(C)[C@]1(C)CC2` [Compound 63325, (4aS,6aR,6bR,8aR,12aR,12bR,14aR,14bS)-11-cyano-N-methoxy-2,2,6a,6b,9,9,12a-heptamethyl-10,14-dioxo-1,2,3,4,4a,5,6,6a,6b,7,8,8a,9,10,12a,12b,13,14,14a,14b-icosahydropicene-4a-carboxamide], in data set [1] (Mus musculus), the half-inhibitory concentration (IC50) was approximately 50 nM. In addition, the Mortality with mice (3 mg/kg), with mice (10 mg/kg) and with mice (30 mg/kg) was 0/5 throughout.
`CN(C)C(=O)[C@]12CCC(C)(C)C[C@H]1[C@H]1C(=O)C[C@@H]3[C@@]4(C)C=C(C#N)C(=O)C(C)(C)[C@@H]4CC[C@@]3(C)[C@]1(C)CC2` [Compound 63326, (4aS,6aR,6bR,8aR,12aR,12bR,14aR,14bS)-11-cyano-N,N,2,2,6a,6b,9,9,12a-nonamethyl-10,14-dioxo-1,2,3,4,4a,5,6,6a,6b,7,8,8a,9,10,12a,12b,13,14,14a,14b-icosahydropicene-4a-carboxamide]: the IC50 in data set [1] (Mus musculus) is approximately 50 nM. The Mortality in the data set with mice (3 mg/kg) was 0/5; in the data set on mice (10 mg/kg) it was 1/5; in the data set with mice (30 mg/kg), 0/5.
